The subject of this experiment is Mast cell. As to the kind of experiment: Inhibition of compound 48/80-induced histamine release in Wistar rat peritoneal mast cells. The experiment is classed as functional, cell-based.
The molecule `C/C(=C\CC[C@]1(C)C=Cc2c(O)cc(C)cc2O1)C/C=C\C(C)(C)O` [DAURICHROMENE C] displayed an IC50 of 87.4 µM. The same measure for `CC(C)=CCC/C(C)=C/CC/C(C)=C/Cc1c(O)cc(C)cc1O` [GRIFOLIN]: 81.6 µM; for `COc1ccc2c(c1)c(CC(=O)O)c(C)n2C(=O)c1ccc(Cl)cc1` [INDOMETHACIN]: 250 µM; for `CC(C)=CCC/C(C)=C/CC[C@]1(C)C=Cc2c(O)cc(C)cc2O1` [CONFLUENTIN]: 205 µM.

Consider `C/C(=C\CC/C(C)=C/CC[C@]1(C)C=Cc2c(O)cc(C)cc2O1)CO` [DAURICHROMENE D], for which the IC50 turned out to be 1.3 µM. The same measure for `C=C(CCC=C(C)C)C(O)CC[C@]1(C)C=Cc2c(O)cc(C)cc2O1` (stereo partly drawn) [DAURICHROMENE B]: 4.4 µM. Then `Cc1cc(O)cc(O)c1` [ORCINOL], with “Not Active”; and `C=C(C)C(O)CC/C(C)=C/CC[C@]1(C)C=Cc2c(O)cc(C)cc2O1` (stereo partly drawn) [DAURICHROMENE A], with 1.6 µM.

These data come from ChEMBL document CHEMBL1151245, “Structures and histamine release inhibitory effects of prenylated orcinol derivatives from Rhododendron dauricum” (J Nat Prod, 2004).
